This note sets out measurements from US9890147B2 (BAYER PHARMA AKTIENGESELLSCHAFT, priority 2012, dated 2018).

In general, IC50 refers to the concentration needed to halve the response being measured. Higher therefore signals weaker potency.

For one assay, the system named is B16F10 cells. Description: Cell proliferation assay (alamarBlue), B16F10. It counts as cell-based. Conditions: Mus musculus, B16-F10, 96 hours incubation, inhibition of cell proliferation. Here is the method:
(§1) In accordance with the invention, the capability of the substances to inhibit cell proliferation was determined Cell viability was determined using the alamarBlue® reagent (Invitrogen) in a Victor X3 Multilabel Reader (Perkin Elmer). The excitation wavelength was 530 nm and the emission wavelenth […].
The B16F10 cells (ATCC, CRL-6475) were sown at a concentration of 300-500 cells/well in 100 μl growth medium (DMEM with phenol red, 10% FCS) on 96-well microtitre plates.
(§2) After an overnight incubation at 37° C., the fluorescence values (CI values) were determined. The plates were then treated with various substance dilutions (1E-5 M, 3E-6 M, 1E-6M, 3E-7 M, 1E-7 M, 3E-8 M, 1E-8 M) and incubated at 37° C. for 72 (MV4-11-, LOX-IMVI cells), 96 (MOLM-13-, B16F10-, MDA-MB-431-, Caov-3 cells), 120 (MOLP-8-, KMS-12-PE cells) or 168 (LAPC-4 cells) hours. The fluorescence values (CO values) were then determined. For the data analysis, the CI values were subtracted from the CO values and the results were compared between cells treated with different dilutions of the substance or with buffer solution only. These were used to calculate the IC 50 values (substance concentration required for 50% inhibition of cell proliferation).
On the technique in general: Alamar Blue is a resazurin reagent that responds to reducing activity.

Another assay deals with MOLM-13 cells. Put plainly: Cell proliferation assay (alamarBlue), MOLM-13. It counts as cell-based. Conditions: Homo sapiens, 96 hours incubation, inhibition of cell proliferation. In outline:
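IC50 = concentration giving 50% growth inhibition relative to buffer-treated cells, after subtracting baseline fluorescence taken before dosing. Compound applied at 1E-5 to 1E-8 M for 96 h at 37 °C in RPMI1640 with 10% FCS; alamarBlue signal at 530/590 nm.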

Another assay concerns the target T1, BRD4 (BD1) (Homo sapiens, UniProt O60885).
T1 construct: with relatively long constructs also being possible, preferably amino acids 44-168; made in house; host or cells: E. coli
Description: Binding assay BRD4/acetylated peptide H4 (TR-FRET protein-protein interaction assay). Put shortly:
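Displacement of biotin-Ac-H4 peptide from His6-tagged BRD4(BD1), final usually 10 nM, read as Eu-streptavidin to anti-His-XL665 TR-FRET (665/620 nm). Compounds tested at 11 doses up to 20 μM in duplicate, pH 7.5 HEPES, 22 °C then 4 °C incubation; IC50 by 4-parameter regression.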

A further assay deals with KMS-12-PE cells. Description: Cell proliferation assay (alamarBlue), KMS-12-PE. The assay is classed as cell-based. Conditions: Homo sapiens, 120 hours incubation, inhibition of cell proliferation. Here is the method: as §1
The KMS-12-PE cells (DSMZ, ACC 606) were sown at a concentration of 4000 cells/well in 100 μl growth medium (RPMI1640, 20% FCS) on 96-well microtitre plates.
as §2

Another assay deals with Caov-3 cells. Description: Cell proliferation assay (alamarBlue), Caov-3. It counts as cell-based. The following applies: Homo sapiens; inhibition of cell proliferation, Caov-3 (ovarian carcinoma), 96 hours. Here is the method:
as §1
The MDA-MB-231 cells (DSMZ, ACC 732) were sown at a concentration of 4000 cells/well in 100 μl growth medium (DMEM/Ham's F12 medium, 10% FCS) on 96-well microtitre plates. The Caov-3 cells (ATCC, HTB-75) were sown at a concentration of 2000 cells/well in 100 μl growth medium (MEM Earle's medium, 10% FCS) on 96-well microtitre plates.
as §2

The subject of a further assay is MOLP-8 cells. Description: Cell proliferation assay (alamarBlue), MOLP-8. The assay is classed as cell-based. The following applies: Homo sapiens, 120 hours incubation, inhibition of cell proliferation. Here is the method:
as §1
The MOLP-8 cells (DSMZ, ACC 569) were sown at a concentration of 4000 cells/well in 100 μl growth medium (RPMI1640, 20% FCS) on 96-well microtitre plates.
as §2

The subject of a further assay is LOX-IMVI cells. Description: Cell proliferation assay (alamarBlue), LOX-IMVI. The assay is classed as cell-based. Conditions: Homo sapiens, 72 hours incubation, inhibition of cell proliferation. As for the experimental part: as §1
The LOX-IMVI cells (NCI-60) were sown at a concentration of 1000 cells/well in 100 μl growth medium (RPMI1640, 10% FCS) on 96-well microtitre plates.
as §2

Another assay deals with MV4-11 cells. Description: Cell proliferation assay (alamarBlue), MV4-11. The assay is classed as cell-based. Conditions: Homo sapiens, 72 hours incubation, inhibition of cell proliferation. Here is the method: as §1
The MV4-11 cells (ATCC, CRL 9591) were sown at a concentration of 5000 cells/well in 100 μl growth medium (RPMI1640, 10% FCS) on 96-well microtitre plates.
as §2

As to `CNC(=O)N1N=C(c2ccc(N3CC(OC)C3)cc2)c2cc(OC)c(OC)cc2CC1C` (racemic) [Example 187, (±)-7,8-dimethoxy-1-[4-(3-methoxyazetidin-1-yl)phenyl]-N,4-dimethyl-4,5-dihydro-3H-2,3-benzodiazepine-3-carboxamide], the IC50 came out at 170 nM in the assay with B16F10 cells, 330 nM in the assay on MOLM-13 cells and 80 nM on BRD4 (BD1).
For `CNC(=O)N1N=C(c2ccc(N3CCNCC3)cc2)c2cc(OC)c(OC)cc2C[C@@H]1C` [Example 131.1, (4S)-7,8-dimethoxy-N,4-dimethyl-1-[4-(piperazin-1-yl)phenyl]-4,5-dihydro-3H-2,3-benzodiazepine-3-carboxamide] the same measures were 60 nM, 110 nM and 70 nM.
The like results for `CNC(=O)N1N=C(c2ccc(N3CC(C)(O)C3)cc2)c2cc(OC)c(OC)cc2CC1C` (racemic) [Example 185, (±)-1-[4-(3-hydroxy-3-methylazetidin-1-yl)phenyl]-7,8-dimethoxy-N,4-dimethyl-4,5-dihydro-3H-2,3-benzodiazepine-3-carboxamide] were, in that order, 160 nM, 280 nM and 70 nM.
Take `CNC(=O)N1N=C(c2ccc(N3CC(O)C3)cc2)c2cc(OC)c(OC)cc2CC1C` (racemic) [Example 184, (±)-1-[4-(3-hydroxyazetidin-1-yl)phenyl]-7,8-dimethoxy-N,4-dimethyl-4,5-dihydro-3H-2,3-benzodiazepine-3-carboxamide]: the IC50 was found to be 130 nM in the assay with B16F10 cells, 300 nM in the assay with MOLM-13 cells and 60 nM on BRD4 (BD1).
The like results for `CNC(=O)N1N=C(c2ccc(N3CCC(C)(O)CC3)cc2)c2cc(OC)c(OC)cc2CC1C` (racemic) [Example 188, (±)-1-[4-(4-hydroxy-4-methylpiperidin-1-yl)phenyl]-7,8-dimethoxy-N,4-dimethyl-4,5-dihydro-3H-2,3-benzodiazepine-3-carboxamide] were, in that order, 100 nM, 200 nM and 50 nM.
As for `CNC(=O)N1N=C(c2ccc(N3CCN(C)CC3)cc2)c2cc(OC(F)(F)F)ccc2C[C@@H]1C` [Example 250.2, (4S)-N,4-dimethyl-1-[4-(4-methyl-1-piperazinyl)phenyl]-8-(trifluoromethoxy)-4,5-dihydro-3H-2,3-benzodiazepine-3-carboxamide], the results for the IC50 in the assay on B16F10 cells, in the assay with MOLM-13 cells and on BRD4 (BD1) were 40 nM, 50 nM and 20 nM, respectively.
Consider `CNC(=O)N1N=C(c2ccc(N3CCN(S(C)(=O)=O)CC3)cc2)c2cc(OC)c(OC)cc2C[C@@H]1C` [Example 135.1, (4S)-7,8-dimethoxy-N,4-dimethyl-1-{4-[4-(methylsulphonyl)piperazin-1-yl]phenyl}-4,5-dihydro-3H-2,3-benzodiazepine-3-carboxamide], for which the IC50 in the assay with B16F10 cells stood at 80 nM; with MOLM-13 cells, 150 nM; on BRD4 (BD1), 40 nM.
The like results for `CNC(=O)N1N=C(c2ccc(N3CC(F)(F)C3)cc2)c2cc(OC)c(OC)cc2CC1C` (racemic) [Example 181, (±)-1-[4-(3,3-difluoroazetidin-1-yl)phenyl]-7,8-dimethoxy-N,4-dimethyl-4,5-dihydro-3H-2,3-benzodiazepine-3-carboxamide] were, in that order, 170 nM, 300 nM and 70 nM.
As for `CNC(=O)N1N=C(c2ccc(-n3nc(-c4ccccc4)cc3C)cc2)c2cc(OC)c(OC)cc2C[C@@H]1C` [Example 147.1, (4S)-7,8-dimethoxy-N,4-dimethyl-1-[4-(5-methyl-3-phenyl-1H-pyrazol-1-yl)phenyl]-4,5-dihydro-3H-2,3-benzodiazepine-3-carboxamide], the IC50 came out at 30 nM in the assay with KMS-12-PE cells; 80 nM in the assay with Caov-3 cells; 20 nM in the assay with MOLP-8 cells; 510 nM in the assay on LOX-IMVI cells; 60 nM in the assay on MOLM-13 cells; 30 nM at BRD4 (BD1). This compound returned a half-inhibitory concentration (IC50) with MV4-11 cells of 20 nM.
Take `CNC(=O)N1N=C(c2ccc(-c3cccc(NS(C)(=O)=O)c3)cc2)c2cc(OC)c(OC)cc2CC1C` (racemic) [Example 71, (±)-7,8-dimethoxy-N,4-dimethyl-1-{3′-[(methylsulphonyl)amino]biphenyl-4-yl}-4,5-dihydro-3H-2,3-benzodiazepine-3-carboxamide]: the half-maximal inhibitory concentration (IC50) came to 80 nM with KMS-12-PE cells; 150 nM in the assay on Caov-3 cells; 90 nM in the assay on MOLP-8 cells; 150 nM with LOX-IMVI cells; 250 nM in the assay with MOLM-13 cells; 40 nM at BRD4 (BD1). Further, the half-inhibitory concentration (IC50) in the assay on MV4-11 cells is 50 nM.
With `CNC(=O)N1N=C(c2ccc(-n3nc(-c4ccccc4)cc3C3CC3)cc2)c2cc(OC)c(OC)cc2CC1C` (racemic) [Example 148, (±)-1-[4-(5-cyclopropyl-3-phenyl-1H-pyrazol-1-yl)phenyl]-7,8-dimethoxy-N,4-dimethyl-4,5-dihydro-3H-2,3-benzodiazepine-3-carboxamide], the 50% inhibitory concentration (IC50) with KMS-12-PE cells was 80 nM; with Caov-3 cells, 300 nM; in the assay with MOLP-8 cells it was 90 nM; in the assay with LOX-IMVI cells it was 250 nM; with MOLM-13 cells, 80 nM; at BRD4 (BD1) it was 40 nM. This compound also gave an IC50 in the assay on MV4-11 cells of 70 nM.
In the case of `CNC(=O)N1N=C(c2ccc(-n3nc(-c4ccccc4)cc3C)cc2)c2cc(OC)c(OC)cc2CC1C` (racemic) [Example 147, (±)-7,8-Dimethoxy-N,4-dimethyl-1-[4-(5-methyl-3-phenyl-1H-pyrazol-1-yl)phenyl]-4,5-dihydro-3H-2,3-benzodiazepine-3-carboxamide], the IC50 in the assay on KMS-12-PE cells came to 60 nM; with Caov-3 cells it was 180 nM; in the assay with MOLP-8 cells, 80 nM; with LOX-IMVI cells, 180 nM; in the assay on MOLM-13 cells it was 70 nM; at BRD4 (BD1), 30 nM. This compound also yielded an IC50 with MV4-11 cells of 50 nM.
Consider `CNC(=O)N1N=C(c2ccc(N3CCN(C)CC3)cc2)c2cc(OC)c(OC)cc2CC1C` (racemic) [Example 127, (±)-7,8-dimethoxy-N,4-dimethyl-1-[4-(4-methylpiperazin-1-yl)phenyl]-4,5-dihydro-3H-2,3-benzodiazepine-3-carboxamide], for which the IC50 in the assay on KMS-12-PE cells stood at 90 nM; in the assay with Caov-3 cells, 240 nM; in the assay with MOLP-8 cells, 90 nM; in the assay on LOX-IMVI cells it was 250 nM; in the assay on MOLM-13 cells it was 180 nM; on BRD4 (BD1) it was 80 nM. For the same compound, the IC50 in the assay on MV4-11 cells was found to be 120 nM.
Consider `CNC(=O)N1N=C(c2ccc(N3CCOC3=O)cc2)c2cc(OC)c(OC)cc2C[C@@H]1C` [Example 34.1, (4S)-7,8-Dimethoxy-N,4-dimethyl-1-[4-(2-oxooxazolidin-3-yl)phenyl]-4,5-dihydro-3H-2,3-benzodiazepine-3-carboxamide], for which the IC50 in the assay on KMS-12-PE cells was determined as 80 nM; in the assay on Caov-3 cells it was 310 nM; in the assay with MOLP-8 cells it was 80 nM; with LOX-IMVI cells, 440 nM; in the assay with MOLM-13 cells, 240 nM; on BRD4 (BD1), 40 nM. The compound also had an IC50 in the assay on MV4-11 cells of 120 nM.
Take `CNC(=O)N1N=C(c2ccc(N3CCC3)cc2)c2cc(OC)c(OC)cc2C[C@@H]1C` [Example 128.2, (4S)-1-[4-(azetidin-1-yl)phenyl]-7,8-dimethoxy-N,4-dimethyl-4,5-dihydro-3H-2,3-benzodiazepine-3-carboxamide]: the concentration for half-maximal inhibition (IC50) with KMS-12-PE cells was determined as 50 nM; in the assay on Caov-3 cells, 160 nM; in the assay with MOLP-8 cells, 50 nM; in the assay on LOX-IMVI cells, 190 nM; with MOLM-13 cells it was 150 nM; at BRD4 (BD1) it was 20 nM. In addition, inhibition with MV4-11 cells was half-maximal at 70 nM (IC50).
